Assay [1] has as its system lysyl oxidase family activity in conditioned medium from KPC cancer cells. Kind of assay: Amplex red enzymatic activity assay on cell-derived conditioned medium (Extended Data Fig. 3g). Conditions: for Lysyl oxidase family activity in conditioned media: KPC cancer cells CM, replicates. In kind it is biochemical, mouse. The arrangement: Lysyl oxidase family activity in conditioned media: unit not given here. On the procedure: (§1) Cell-derived conditioned medium was prepared from KPC CAFs and CCs grown in phenol red-free DMEM with 0.1% FBS and 10 μM CuSO4 for 24 h. At collection, size filtration >10 kDa for 40× concentration and buffer exchange (1.2 M urea and 50 mM sodium borate buffer, pH 8.2) were performed and subsequently used for the Amplex red assay as previously described[59] using putrescine as a substrate. Three biological repeats were performed.
(§2) Data presented as mean values +/− SD. f. […] Data presented as mean values +/− SD. […] Data presented as mean values +/− SD. […] Data presented as mean values +/− SD. Ordinary one-way ANOVA for multiple comparison test performed. Source data

The test system of assay [2] is lysyl oxidase family activity in conditioned medium from KPC CAFs. Described as above. Conditions: for Lysyl oxidase family activity in conditioned media: KPC CAF CM, replicates. The arrangement: Lysyl oxidase family activity in conditioned media: unit not given here. In kind it is biochemical, mouse. The procedure:
as §1, §2

The test system of assay [3] is human pancreatic cancer CAF remodeled organotypic matrices. Kind of assay: Matrix stiffness by unconfined compression testing of organotypic matrices. It is filed as cell-based. Conditions: human pancreatic cancer CAFs, PXS-5505 during remodeling. On the procedure: Unconfined compression of 3D organotypic collagen matrices treated with or without PXS-5505 was performed on a TA Instruments Dynamic Hybrid Rheometer (DHR-3, TA Instruments). Remodeled collagen matrices were placed between upper and lower parallel plate geometries. A constant linear compressive rate of 5 µm s^−1 was applied to the samples and axial force (N) and gap (mm) were collected every 0.01 s. Data were processed and a stress–strain curve for each replicate was obtained. Bulk elastic modulus (kPa) was obtained as the gradient of the linear region of the stress–strain curve corrected for cross-sectional area of sample and normalized to control. Data points represent biological replicates. […]
Extended Data Fig. 4 PXS-5505 inhibits collagen cross-linking by PDAC CAFs in vitro resulting in decreased cancer cell invasion. a. […] Chemical structures of lysyl oxidase family catalyzed hydroxyallysine or allysine residues and the subsequent divalent and trivalent bonds that are formed that can be quantified by mass spectrometry. c. […] Relative fold expression of LOXL family members compared to LOX were determined by 2^–∆∆Ct approach. f. […] Comparison of measured area of matrices between control, PXS-5120 and PXS-5505 treatment groups (n = 3) over time. i. […] Representative images of invasion of KPC cancer cells into a contracted organotypic matrix as determined by H&E staining. […]

Consider one compound from paper PMC10518255, “A first-in-class pan-lysyl oxidase inhibitor impairs stromal remodeling and enhances gemcitabine response and survival in pancreatic cancer” (Nature Cancer, 2023).

Values joined by “and” are separate entries in the source; they are usually repeats but may differ in a detail not shown here. Identical values can stand only once.

Take `Cl.Cl.NC/C=C(\F)CS(=O)(=O)c1cccc2cccnc12.O` [PXS-5505, (Z)-3-fluoro-4-(quinolin-8-ylsulfonyl)but-2-en-1-amine dihydrochloride monohydrate]: the “inhibition of lysyl oxidase family activity in conditioned medium” value in assay [1] (KPC CCs) and in assay [2] (KPC CAFs) was “inhibition of lysyl oxidase family activity” throughout. The “Lysyl oxidase family activity in conditioned media” value is 52.7404 and 147.39 and 87.9635 in assay [1] (1.5 nM PXS); 57.9047 and 143.925 and 88.9618 in assay [1] (3 nM PXS); 58.7665 and 150.554 and 90.679 in assay [1] (15 nM PXS); 57.8418 and 141.264 and 86.9464 in assay [1] (30 nM PXS); 55.9673 and 128.167 and 75.6773 in assay [1] (150 nM PXS); 56.4831 and 97.2065 and 57.86 in assay [1] (300 nM PXS). Moreover, the “Lysyl oxidase family activity in conditioned media” value in assay [1] (1.5 uM PXS) was 35.0772 and 43.4748 and 18.796; in assay [1] (3 uM PXS) it was 22.4023 and 21.6286 and 3.933; in assay [1] (15 uM PXS), -2.759 and 11.8534 and -9.095; in assay [1] (30 uM PXS), -2.098 and 9.262 and -6.1538; in assay [2] (1.5 nM PXS), 95.9609 and 94.079 and 81.6749; in assay [2] (3 nM PXS), 109.447 and 108.981 and 81.5719. Besides, the “Lysyl oxidase family activity in conditioned media” value in assay [2] (15 nM PXS) is 100.129 and 99.9799 and 74.1019; in assay [2] (30 nM PXS), 107.999 and 96.3316 and 79.5133; in assay [2] (150 nM PXS) it was 79.0426 and 71.3415 and 64.7518; in assay [2] (300 nM PXS), 88.3802 and 67.0866 and 51.1694; in assay [2] (1.5 uM PXS), 45.307 and 27.142 and 15.754; in assay [2] (3 uM PXS), 31.4691 and 22.608 and 3.789. For the same compound, the “Lysyl oxidase family activity in conditioned media” value was -3.917 and 9.401 and -5.483 in assay [2] (15 uM PXS); -4.091 and 9.102 and -4.018 in assay [2] (30 uM PXS). Moreover, in assay [3], the “stiffness (bulk modulus) of remodeled organotypic matrices” value is on record as “decrease in stiffness (bulk modulus)”.
